Measured values from a compilation of properties of binary mixtures (doi:10.1021/je200600p).

Experiment: xn = mol fraction of the nth substance listed
Settings: 101 kPa

## CCCC[n+]1ccn(C)c1.COP(=O)([O-])OC + CCO
293.15 K, x2 = 0.201
  viscosity: 396 mPa·s
293.15 K, x2 = 0.6
  viscosity: 42.1 mPa·s
293.15 K, x2 = 0.8
  viscosity: 8.84 mPa·s
298.15 K, x2 = 0.201
  viscosity: 284 mPa·s
298.15 K, x2 = 0.6
  viscosity: 34.3 mPa·s
298.15 K, x2 = 0.8
  viscosity: 7.704 mPa·s
303.15 K, x2 = 0.201
  viscosity: 210 mPa·s
303.15 K, x2 = 0.399
  viscosity: 88.9 mPa·s
303.15 K, x2 = 0.6
  viscosity: 28.18 mPa·s
303.15 K, x2 = 0.8
  viscosity: 6.718 mPa·s
308.15 K, x2 = 0.399
  viscosity: 69.9 mPa·s
308.15 K, x2 = 0.6
  viscosity: 23.56 mPa·s
313.15 K, x2 = 0.201
  viscosity: 119 mPa·s
313.15 K, x2 = 0.6
  viscosity: 19.87 mPa·s
318.15 K, x2 = 0.201
  viscosity: 92.7 mPa·s
318.15 K, x2 = 0.6
  viscosity: 16.97 mPa·s
318.15 K, x2 = 0.8
  viscosity: 4.711 mPa·s
323.15 K, x2 = 0.201
  viscosity: 73.3 mPa·s
323.15 K, x2 = 0.6
  viscosity: 14.59 mPa·s
328.15 K, x2 = 0.201
  viscosity: 59.06 mPa·s
328.15 K, x2 = 0.6
  viscosity: 12.66 mPa·s
333.15 K, x2 = 0.201
  viscosity: 48.16 mPa·s
333.15 K, x2 = 0.6
  viscosity: 11.06 mPa·s
333.15 K, x2 = 0.8
  viscosity: 3.454 mPa·s

## CC[n+]1ccn(C)c1.COP(=O)([O-])OC + CCO
293.15 K, x2 = 0.199
  viscosity: 190.6 mPa·s
293.15 K, x2 = 0.398
  viscosity: 87.3 mPa·s
293.15 K, x2 = 0.598
  viscosity: 27.63 mPa·s
293.15 K, x2 = 0.798
  viscosity: 6.898 mPa·s
298.15 K, x2 = 0.199
  viscosity: 142.7 mPa·s
298.15 K, x2 = 0.798
  viscosity: 6.127 mPa·s
303.15 K, x2 = 0.199
  viscosity: 109.5 mPa·s
303.15 K, x2 = 0.598
  viscosity: 19.83 mPa·s
303.15 K, x2 = 0.798
  viscosity: 5.471 mPa·s
308.15 K, x2 = 0.199
  viscosity: 85.8 mPa·s
308.15 K, x2 = 0.398
  viscosity: 45 mPa·s
308.15 K, x2 = 0.598
  viscosity: 17.05 mPa·s
313.15 K, x2 = 0.199
  viscosity: 68.4 mPa·s
313.15 K, x2 = 0.398
  viscosity: 37.37 mPa·s
313.15 K, x2 = 0.598
  viscosity: 14.8 mPa·s
313.15 K, x2 = 0.798
  viscosity: 4.425 mPa·s
318.15 K, x2 = 0.199
  viscosity: 55.53 mPa·s
318.15 K, x2 = 0.798
  viscosity: 4.004 mPa·s
323.15 K, x2 = 0.199
  viscosity: 45.75 mPa·s
323.15 K, x2 = 0.398
  viscosity: 26.44 mPa·s
323.15 K, x2 = 0.598
  viscosity: 11.36 mPa·s
323.15 K, x2 = 0.798
  viscosity: 3.634 mPa·s
328.15 K, x2 = 0.398
  viscosity: 22.64 mPa·s
328.15 K, x2 = 0.598
  viscosity: 10.04 mPa·s
328.15 K, x2 = 0.798
  viscosity: 3.318 mPa·s
333.15 K, x2 = 0.199
  viscosity: 32.27 mPa·s
333.15 K, x2 = 0.398
  viscosity: 19.56 mPa·s
333.15 K, x2 = 0.598
  viscosity: 8.951 mPa·s
333.15 K, x2 = 0.798
  viscosity: 3.037 mPa·s

## CCCC[n+]1ccn(C)c1.COP(=O)([O-])OC + CO
293.15 K, x2 = 0.203
  viscosity: 395 mPa·s
293.15 K, x2 = 0.404
  viscosity: 150.1 mPa·s
293.15 K, x2 = 0.6
  viscosity: 38.6 mPa·s
298.15 K, x2 = 0.203
  viscosity: 282 mPa·s
298.15 K, x2 = 0.404
  viscosity: 113.3 mPa·s
298.15 K, x2 = 0.6
  viscosity: 31.59 mPa·s
298.15 K, x2 = 0.8
  viscosity: 6.267 mPa·s
303.15 K, x2 = 0.203
  viscosity: 206 mPa·s
303.15 K, x2 = 0.404
  viscosity: 87.5 mPa·s
303.15 K, x2 = 0.6
  viscosity: 26.19 mPa·s
303.15 K, x2 = 0.8
  viscosity: 5.536 mPa·s
308.15 K, x2 = 0.203
  viscosity: 154.4 mPa·s
308.15 K, x2 = 0.6
  viscosity: 21.99 mPa·s
308.15 K, x2 = 0.8
  viscosity: 4.923 mPa·s
313.15 K, x2 = 0.203
  viscosity: 117.9 mPa·s
313.15 K, x2 = 0.404
  viscosity: 54.86 mPa·s
313.15 K, x2 = 0.6
  viscosity: 18.59 mPa·s
318.15 K, x2 = 0.203
  viscosity: 91.5 mPa·s
318.15 K, x2 = 0.6
  viscosity: 15.94 mPa·s
318.15 K, x2 = 0.8
  viscosity: 3.972 mPa·s
323.15 K, x2 = 0.203
  viscosity: 72.5 mPa·s
323.15 K, x2 = 0.404
  viscosity: 36.49 mPa·s
323.15 K, x2 = 0.6
  viscosity: 13.78 mPa·s
323.15 K, x2 = 0.8
  viscosity: 3.665 mPa·s
328.15 K, x2 = 0.203
  viscosity: 58.3 mPa·s
328.15 K, x2 = 0.404
  viscosity: 30.37 mPa·s
328.15 K, x2 = 0.6
  viscosity: 11.99 mPa·s
328.15 K, x2 = 0.8
  viscosity: 3.338 mPa·s
333.15 K, x2 = 0.203
  viscosity: 47.6 mPa·s
333.15 K, x2 = 0.404
  viscosity: 25.51 mPa·s
333.15 K, x2 = 0.6
  viscosity: 10.48 mPa·s
333.15 K, x2 = 0.8
  viscosity: 3.051 mPa·s

## CC[n+]1ccn(C)c1.COP(=O)([O-])OC + CO
293.15 K, x2 = 0.198
  viscosity: 197.6 mPa·s
293.15 K, x2 = 0.399
  viscosity: 77.9 mPa·s
293.15 K, x2 = 0.598
  viscosity: 24.32 mPa·s
293.15 K, x2 = 0.799
  viscosity: 5.308 mPa·s
298.15 K, x2 = 0.198
  viscosity: 147.8 mPa·s
298.15 K, x2 = 0.399
  viscosity: 61.74 mPa·s
298.15 K, x2 = 0.799
  viscosity: 4.769 mPa·s
303.15 K, x2 = 0.198
  viscosity: 112.7 mPa·s
303.15 K, x2 = 0.399
  viscosity: 49.69 mPa·s
303.15 K, x2 = 0.598
  viscosity: 17.64 mPa·s
303.15 K, x2 = 0.799
  viscosity: 4.309 mPa·s
308.15 K, x2 = 0.198
  viscosity: 88 mPa·s
308.15 K, x2 = 0.399
  viscosity: 40.72 mPa·s
308.15 K, x2 = 0.598
  viscosity: 15.26 mPa·s
308.15 K, x2 = 0.799
  viscosity: 3.911 mPa·s
313.15 K, x2 = 0.198
  viscosity: 70.2 mPa·s
313.15 K, x2 = 0.399
  viscosity: 33.84 mPa·s
313.15 K, x2 = 0.598
  viscosity: 13.28 mPa·s
313.15 K, x2 = 0.799
  viscosity: 3.566 mPa·s
318.15 K, x2 = 0.198
  viscosity: 56.83 mPa·s
318.15 K, x2 = 0.399
  viscosity: 28.41 mPa·s
318.15 K, x2 = 0.598
  viscosity: 11.67 mPa·s
323.15 K, x2 = 0.198
  viscosity: 46.73 mPa·s
323.15 K, x2 = 0.399
  viscosity: 24.24 mPa·s
323.15 K, x2 = 0.598
  viscosity: 10.3 mPa·s
323.15 K, x2 = 0.799
  viscosity: 2.998 mPa·s
328.15 K, x2 = 0.198
  viscosity: 39.02 mPa·s
328.15 K, x2 = 0.598
  viscosity: 9.132 mPa·s
328.15 K, x2 = 0.799
  viscosity: 2.763 mPa·s
333.15 K, x2 = 0.198
  viscosity: 32.96 mPa·s
333.15 K, x2 = 0.598
  viscosity: 8.188 mPa·s
333.15 K, x2 = 0.799
  viscosity: 2.555 mPa·s

## CCCC[n+]1ccn(C)c1.COP(=O)([O-])OC + O
293.15 K, x2 = 0.201
  viscosity: 594 mPa·s
293.15 K, x2 = 0.398
  viscosity: 356 mPa·s
293.15 K, x2 = 0.601
  viscosity: 148.3 mPa·s
293.15 K, x2 = 0.799
  viscosity: 39.94 mPa·s
298.15 K, x2 = 0.201
  viscosity: 410 mPa·s
298.15 K, x2 = 0.601
  viscosity: 108.5 mPa·s
298.15 K, x2 = 0.799
  viscosity: 30.68 mPa·s
303.15 K, x2 = 0.398
  viscosity: 181.6 mPa·s
303.15 K, x2 = 0.799
  viscosity: 24.17 mPa·s
308.15 K, x2 = 0.201
  viscosity: 212 mPa·s
308.15 K, x2 = 0.398
  viscosity: 134.7 mPa·s
308.15 K, x2 = 0.601
  viscosity: 62.54 mPa·s
308.15 K, x2 = 0.799
  viscosity: 19.42 mPa·s
313.15 K, x2 = 0.201
  viscosity: 157.5 mPa·s
313.15 K, x2 = 0.398
  viscosity: 102 mPa·s
313.15 K, x2 = 0.601
  viscosity: 48.93 mPa·s
318.15 K, x2 = 0.201
  viscosity: 119.7 mPa·s
318.15 K, x2 = 0.601
  viscosity: 39.05 mPa·s
318.15 K, x2 = 0.799
  viscosity: 13.14 mPa·s
323.15 K, x2 = 0.201
  viscosity: 92.7 mPa·s
323.15 K, x2 = 0.398
  viscosity: 62.07 mPa·s
323.15 K, x2 = 0.601
  viscosity: 31.67 mPa·s
323.15 K, x2 = 0.799
  viscosity: 11.05 mPa·s
328.15 K, x2 = 0.201
  viscosity: 73.1 mPa·s
328.15 K, x2 = 0.601
  viscosity: 26.05 mPa·s
328.15 K, x2 = 0.799
  viscosity: 9.37 mPa·s
333.15 K, x2 = 0.201
  viscosity: 58.55 mPa·s
333.15 K, x2 = 0.398
  viscosity: 40.4 mPa·s
333.15 K, x2 = 0.601
  viscosity: 21.69 mPa·s
333.15 K, x2 = 0.799
  viscosity: 8.037 mPa·s

## CC[n+]1ccn(C)c1.COP(=O)([O-])OC + O
293.15 K, x2 = 0.399
  viscosity: 194.9 mPa·s
293.15 K, x2 = 0.6
  viscosity: 98.6 mPa·s
293.15 K, x2 = 0.799
  viscosity: 32.35 mPa·s
298.15 K, x2 = 0.399
  viscosity: 143.4 mPa·s
298.15 K, x2 = 0.6
  viscosity: 74.5 mPa·s
298.15 K, x2 = 0.799
  viscosity: 25.47 mPa·s
303.15 K, x2 = 0.399
  viscosity: 108.1 mPa·s
303.15 K, x2 = 0.6
  viscosity: 57.7 mPa·s
303.15 K, x2 = 0.799
  viscosity: 20.44 mPa·s
308.15 K, x2 = 0.198
  viscosity: 119.7 mPa·s
308.15 K, x2 = 0.399
  viscosity: 83.5 mPa·s
308.15 K, x2 = 0.6
  viscosity: 45.45 mPa·s
308.15 K, x2 = 0.799
  viscosity: 16.68 mPa·s
313.15 K, x2 = 0.198
  viscosity: 93 mPa·s
313.15 K, x2 = 0.399
  viscosity: 65.74 mPa·s
313.15 K, x2 = 0.6
  viscosity: 36.43 mPa·s
313.15 K, x2 = 0.799
  viscosity: 13.81 mPa·s
318.15 K, x2 = 0.6
  viscosity: 29.68 mPa·s
323.15 K, x2 = 0.198
  viscosity: 59.37 mPa·s
323.15 K, x2 = 0.399
  viscosity: 42.99 mPa·s
323.15 K, x2 = 0.6
  viscosity: 24.55 mPa·s
323.15 K, x2 = 0.799
  viscosity: 9.81 mPa·s
328.15 K, x2 = 0.198
  viscosity: 48.61 mPa·s
328.15 K, x2 = 0.6
  viscosity: 20.58 mPa·s
328.15 K, x2 = 0.799
  viscosity: 8.405 mPa·s
333.15 K, x2 = 0.399
  viscosity: 29.81 mPa·s
333.15 K, x2 = 0.6
  viscosity: 17.46 mPa·s
333.15 K, x2 = 0.799
  viscosity: 7.264 mPa·s
